Source: patent US6383490B1, “Anti-cocaine vaccine” (The Scripps Research Institute, priority 1995, dated 2002)

Key:
[1] = system: cocaine-binding immunoglobulins; test: Competitive binding studies of the immune response (cocaine-binding immunoglobulins)
From the text: Consequently, inhibition of cocaine-binding immunoglobulins would not be expected in vivo from these metabolites.

[2] = Plasma cocaine levels by HPLC; format: in vivo, rat; conditions: 15 mg/kg i.p.
From the text: Analysis of serum immunoglobulin dissociation kinetics, antigen-binding capacity and the effect of antigen dilution (P. Minden, et al., in Handbook of Experimental Immunology. Weir, D. M., Ed., (Davis Co., Philadelphia, 1967), chap. 13, pp. 463-492; M. W. Steward et al., Antibody Affinity: Thermodynamic Aspects and Biological Significance, (CRC Press, Boca Raton, Fla., 1983); H. N. Eisen, in Methods in Medical Research. Eisen, H. N., Ed., (Yearbook Medical Publishers, Chicago, 1964), pp. 106-114; J. H. Hill, et al. Clin. Exp. Immunol. (1973): vol. 15, p 213-224.) were consistent with an in vivo antibody excess having a micromolar average binding constant. […] To complement these experiments, plasma cocaine levels were determined by HPLC according to a modified method of Benuck (M. Benuck, et al., J. Pharmacol. Exp. Ther.(1987): vol. 243, p 144-149) following a 15 mg/kg i.p. injection in a separate group of animals.

CN1[C@H]2CC[C@@H]1[C@@H](C(=O)O)[C@@H](OC(=O)c1ccccc1)C2 [benzoylecgonine]
discrimination for cocaine versus competitor ([1]; immune response to hapten 4 conjugate): greater than 900 fold

COC(=O)[C@H]1[C@@H](OC(=O)c2ccccc2)C[C@@H]2CC[C@H]1N2C [cocaine, (−)-cocaine]
peak plasma concentration [2]: 5.56 ± 0.31 µM
time of peak plasma concentration [2]: 5 min
half-life ([2]; Wistar, rat, plasma, ip): 25 min

COC(=O)[C@@H]1[C@H]2CC[C@@H](C[C@@H]1O)N2C [ecgonine methyl ester]
inhibition of cocaine-binding by competitor [1]: no detectable inhibition
